# Assay results taken from ChEMBL document CHEMBL3244164, “Synthesis and analgesic activity of 1,3-dihydro-3-(substituted phenyl)imidazo[4,5-b]pyridin-2-ones and 3-(substituted phenyl)-1,2,3-triazolo[4,5-b]pyridines” (J Med Chem, 1978).
# Tests used:
# Rattus norvegicus [1] = assay: Analgesic activity in Sprague-Dawley rat brewer's yeast treated foot assessed as response threshold at 32 mg/kg, po; format: functional
# Rattus norvegicus [2] = assay: Analgesic activity in Sprague-Dawley rat normal foot assessed as response threshold at 32 mg/kg, po; format: functional
Structure (SMILES),Activity (Rattus norvegicus [1]),Activity (Rattus norvegicus [2])
COc1ccc(OC)c(-n2nnc3cccnc32)c1,<25 mm,<40 mm
O=c1[nH]c2cccnc2n1-c1c(F)cccc1F,<25 mm,<40 mm
COc1ccc(-n2nnc3cccnc32)c(OC)c1,<25 mm,<40 mm
O=c1[nH]c2cccnc2n1-c1ccc2c(c1)CCC2,<25 mm,<40 mm
Cc1cccc(-n2c(=O)[nH]c3cccnc32)n1,<25 mm,<40 mm
CCc1ccc(-n2nnc3cccnc32)cc1,<25 mm,<40 mm
COc1cc(-n2c(=O)[nH]c3cccnc32)ccc1C,<25 mm,<40 mm
CN(C)c1ccccc1-n1nnc2cccnc21,<25 mm,<40 mm
C=CCn1c(=O)n(-c2ccccc2F)c2ncccc21,25 mm,<40 mm
c1cnc2c(c1)nnn2-c1ccc2c(c1)OCO2,25 mm,40 mm
CC(=O)n1c(=O)n(-c2ccc3c(c2)OCO3)c2ncccc21,25 mm,40 mm
O=c1[nH]c2cccnc2n1-c1ccc(Cl)c(Cl)c1,<25 mm,<40 mm
c1ccc(-c2nc3cccnc3n2-c2ccc3c(c2)OCO3)cc1,<25 mm,<40 mm
Cc1cccc(C)c1-n1nnc2cccnc21,25 mm,<40 mm
C=CCn1c(=O)n(-c2ccccc2F)c2ncncc21,<25 mm,<40 mm
CC(=O)Nc1ccc(-n2nnc3cccnc32)cc1,<25 mm,<40 mm
COc1ccc(OC)c(-n2c(=O)[nH]c3cccnc32)c1,<25 mm,<40 mm
O=c1[nH]c2cccnc2n1-c1ccc(Oc2ccccc2)cc1,<25 mm,<40 mm
O=c1[nH]c2cccnc2n1-c1ccc2c(c1)COCO2,<25 mm,<40 mm
O=c1[nH]c2cncnc2n1-c1ccc2c(c1)OCO2,<25 mm,<40 mm
COc1ccc(-n2c(=O)[nH]c3cccnc32)c(OC)c1,<25 mm,<40 mm
O=c1[nH]c2cccnc2n1-c1cccc2c1OCO2,<25 mm,<40 mm
Brc1ccccc1-n1nnc2cccnc21,25 mm,<40 mm

Structure (SMILES),Activity (Rattus norvegicus [1]),Activity (Rattus norvegicus [2])
C=CCn1c(=O)n(-c2ccc3c(c2)OCO3)c2ccccc21,<25 mm,<40 mm
c1ccc(Oc2ccc(-n3nnc4cccnc43)cc2)cc1,<25 mm,<40 mm
CCOCn1c(=O)n(-c2ccc3c(c2)OCO3)c2ncccc21,<25 mm,<40 mm
C=CCn1c(=O)n(-c2cccc(C(=O)OCC)c2)c2ncccc21,<25 mm,<40 mm
C=CCn1c(=O)n(-c2cccc3c2OCO3)c2ncccc21,<25 mm,<40 mm
C=CCSc1nc2cccnc2n1-c1ccc2c(c1)OCO2,<25 mm,<40 mm
CC(C)=CCn1c(=O)n(-c2ccc3c(c2)OCO3)c2ncccc21,<25 mm,<40 mm
Clc1ccc2nnn(-c3ccccc3)c2n1,<25 mm,<40 mm
COc1ccc(-n2nnc3cccnc32)cc1,<25 mm,<40 mm
O=c1[nH]c2cccnc2n1-c1cc(F)ccc1F,<25 mm,<40 mm
O=c1n(-c2ccc3c(c2)OCO3)c2ncccc2n1S(=O)(=O)C(F)(F)F,<25 mm,<40 mm
Fc1ccccc1-n1nnc2cc(Cl)cnc21,25 mm,<40 mm
O=c1n(C2=NCCS2)c2cccnc2n1-c1ccc2c(c1)OCO2,<25 mm,<40 mm
O=c1[nH]c2cccnc2n1-c1ccccc1Br,25 mm,<40 mm
Cc1ccc(-n2c(=O)[nH]c3cccnc32)cc1C,<25 mm,<40 mm
C=C(C)Cn1c(=O)n(-c2ccc3c(c2)OCO3)c2ncccc21,<25 mm,<40 mm
C=CCn1c(=O)n(-c2ccc3c(c2)OC2(CCCCC2)O3)c2ncccc21,<25 mm,40 mm
S=c1[nH]c2cccnc2n1-c1ccc2c(c1)OCO2,<25 mm,<40 mm
O=c1[nH]c2cccnc2n1-c1ccc(F)cc1,25 mm,40 mm
c1cnc2c(c1)nnn2-c1ccc2c(c1)CCC2,<25 mm,<40 mm
O=c1[nH]c2cccnc2n1-c1ccc(F)cc1F,25 mm,<40 mm
O=c1[nH]c2cccnc2n1Cc1ccc(F)cc1,<25 mm,<40 mm
O=c1[nH]c2cccnc2n1CCc1ccccc1,<25 mm,<40 mm

Structure (SMILES),Activity (Rattus norvegicus [1]),Activity (Rattus norvegicus [2])
Cc1ccc(-n2nnc3cccnc32)c(C)c1,<25 mm,<40 mm
CCOC(=O)n1c(=O)n(-c2ccc3c(c2)OCO3)c2ncccc21,<25 mm,<40 mm
O=c1n(Cc2ccccc2)c2cccnc2n1-c1ccc2c(c1)OCO2,<25 mm,<40 mm
O=c1[nH]c2cccnc2n1-c1cccc(F)c1,<25 mm,<40 mm
O=c1n(CCC2CCCCC2)c2cccnc2n1-c1ccc2c(c1)OCO2,<25 mm,<40 mm
O=c1[nH]c2cccnc2n1-c1cccc2c1CCCC2,<25 mm,<40 mm
O=C(O)c1ccc(-n2nnc3cccnc32)cc1,<25 mm,<40 mm
CC(=O)c1ccc(-n2nnc3cccnc32)cc1,<25 mm,<40 mm
O=c1n(C/C=C/c2ccccc2)c2cccnc2n1-c1ccc2c(c1)OCO2,<25 mm,<40 mm
Clc1ccc(-n2nnc3cccnc32)c(Cl)c1,<25 mm,40 mm
Cc1ccc(-n2nnc3cccnc32)cc1,<25 mm,<40 mm
c1cnc2c(c1)nnn2-c1ccc2c(c1)COC2,<25 mm,<40 mm
Fc1cccc(F)c1-n1nnc2cccnc21,25 mm,<40 mm
Fc1cccc(-n2nnc3cccnc32)c1,<25 mm,<40 mm
CC(C)Cc1ccc(-n2nnc3cccnc32)cc1,<25 mm,<40 mm
C=CC(C)n1c(=O)n(-c2ccc3c(c2)OCO3)c2ncccc21 (stereo not given),<25 mm,<40 mm
Cc1cc2c(cc1-n1c(=O)[nH]c3cccnc31)OCO2,<25 mm,<40 mm
COC(=O)c1cnc2c(c1)[nH]c(=O)n2-c1ccccc1F,<25 mm,<40 mm
CC(C)CCn1c(=O)n(-c2ccc3c(c2)OCO3)c2ncccc21,<25 mm,<40 mm
NC(=O)c1ccccc1-n1nnc2cccnc21,25 mm,<40 mm
O=c1[nH]c2cccnc2n1-c1cc2c(cc1[N+](=O)[O-])OCO2,<25 mm,<40 mm
COc1ccc(-n2nnc3cccnc32)cc1OC,<25 mm,<40 mm
NC(=O)c1cccc(-n2nnc3cccnc32)c1,25 mm,<40 mm

Structure (SMILES),Activity (Rattus norvegicus [1]),Activity (Rattus norvegicus [2])
Clc1ccccc1-n1nnc2cccnc21,25 mm,<40 mm
CC(C)c1ccccc1-n1nnc2cccnc21,25 mm,<40 mm
COc1ccccc1-n1nnc2cccnc21,25 mm,<40 mm
Fc1ccccc1Cn1nnc2cccnc21,<25 mm,<40 mm
CC(=O)Cn1c(=O)n(-c2ccc3c(c2)OCO3)c2ncccc21,<25 mm,<40 mm
c1cnc2c(c1)nnn2Cc1ccc2c(c1)OCO2,<25 mm,<40 mm
CN(C)CCCn1c(=O)n(-c2ccc3c(c2)OCO3)c2ncccc21,<25 mm,<40 mm
Clc1ccc(-n2nnc3cccnc32)cc1Cl,<25 mm,<40 mm
O=c1[nH]c2cccnc2n1-c1cccc(C(F)(F)F)c1,<25 mm,<40 mm
O=C(O)c1cnc2c(c1)[nH]c(=O)n2-c1ccccc1F,<25 mm,<40 mm
O=c1[nH]c2cccnc2n1-c1ccc2c(c1)OC1(CCCCC1)O2,<25 mm,<40 mm
CCCCNC(=O)n1c(=O)n(-c2ccc3c(c2)OCO3)c2ncccc21,<25 mm,<40 mm
CCOC(=O)c1cccc(-n2nnc3cccnc32)c1,<25 mm,<40 mm
O=C(O)Cc1ccc(-n2c(=O)[nH]c3cccnc32)cc1,<25 mm,<40 mm
CN(C)c1ccccc1-n1c(=O)[nH]c2cccnc21,<25 mm,<40 mm
CC(=O)OCCn1c(=O)n(-c2ccc3c(c2)OCO3)c2ncccc21,25 mm,<40 mm
Cc1ccc(-n2nnc3cccnc32)cc1C,<25 mm,<40 mm
c1ccc(-n2nnc3cccnc32)cc1,<25 mm,<40 mm
O=c1[nH]c2cccnc2n1C1CCCCC1,<25 mm,<40 mm
COc1ccc(-n2c(=O)[nH]c3cccnc32)cc1,<25 mm,<40 mm
c1ccc(CCn2nnc3cccnc32)cc1,<25 mm,<40 mm
